Assay results reported in patent publication US10906873B2, “Substituted cyclic amides as herbicides” (FMC Corporation, priority 2015, dated 2021).

Key:
Type in all cases: in vivo
[1] = tested on: barnyardgrass (Echinochloa crus-galli); assay: Test A preemergence, barnyardgrass; details: 0 to 100 scale
From the text: (§1) Seeds of plant species selected from barnyardgrass (Echinochloa crus-galli), crabgrass (large crabgrass, Digitaria sanguinalis), kochia (Kochia scoparia), ragweed (common ragweed, Ambrosia elatior), morningglory (Ipomoea spp.), velvetleaf (Abutilon theophrasti), ryegrass, It. (Italian ryegrass, Lolium multiflorum), foxtail, giant (giant foxtail, Setaria faberii), wheat (Triticum aestivum), corn (Zea mays), and pigweed (Amaranthus retroflexus), were planted into a blend of loam soil and sand and treated preemergence with a directed soil spray using test chemicals formulated in a non-phytotoxic solvent mixture which included a surfactant. At the same time, plants selected from these crop and weed species and also blackgrass (Alopecurus myosuroides), and galium (catchweed bedstraw, Galium aparine), were planted in pots containing the same blend of loam soil and sand and treated with postemergence applications of test chemicals formulated in the same manner. Plants ranged in height from 2 to 10 cm and were in the one- to two-leaf stage for the postemergence treatment. Treated plants and untreated controls were maintained in a greenhouse for approximately 10 d, after which time all treated plants were compared to untreated controls and visually evaluated for injury. Plant response ratings, summarized in Table A, are based on a 0 to 100 scale where 0 is no effect and 100 is complete control. A dash (-) response means no test result.

kochia (Kochia scoparia) [2] = assay: Test A preemergence, kochia; details: 0 to 100 scale
From the text: as §1

[3] = tested on: ragweed (common ragweed, Ambrosia elatior); assay: Test A preemergence, ragweed; details: 0 to 100 scale
From the text: as §1

[4] = tested on: ryegrass, It. (Italian ryegrass, Lolium multiflorum); assay: Test A preemergence, ryegrass, It.; details: 0 to 100 scale
From the text: as §1

[5] = tested on: foxtail, giant (giant foxtail, Setaria faberii); assay: Test A preemergence, foxtail, giant; details: 0 to 100 scale
From the text: as §1

[6] = tested on: pigweed (Amaranthus retroflexus); assay: Test A preemergence, pigweed; details: 0 to 100 scale
From the text: as §1

[7] = tested on: barnyardgrass (Echinochloa crus-galli); assay: Test A postemergence, barnyardgrass; details: 0 to 100 scale
From the text: as §1

kochia (Kochia scoparia) [8] = assay: Test A postemergence, kochia; details: 0 to 100 scale
From the text: as §1

[9] = tested on: ragweed (common ragweed, Ambrosia elatior); assay: Test A postemergence, ragweed; details: 0 to 100 scale
From the text: as §1

[10] = tested on: ryegrass, It. (Italian ryegrass, Lolium multiflorum); assay: Test A postemergence, ryegrass, It.; details: 0 to 100 scale
From the text: as §1

[11] = tested on: foxtail, giant (giant foxtail, Setaria faberii); assay: Test A postemergence, foxtail, giant; details: 0 to 100 scale
From the text: as §1

[12] = tested on: wheat (Triticum aestivum); assay: Test A postemergence, wheat; details: 0 to 100 scale
From the text: as §1

corn (Zea mays) = assay: Test A postemergence, corn; details: 0 to 100 scale
From the text: as §1

[13] = tested on: pigweed (Amaranthus retroflexus); assay: Test A postemergence, pigweed; details: 0 to 100 scale
From the text: as §1

[14] = tested on: blackgrass (Alopecurus myosuroides); assay: Test A postemergence, blackgrass; details: 0 to 100 scale
From the text: as §1

[15] = tested on: galium (catchweed bedstraw, Galium aparine); assay: Test A postemergence, galium; details: 0 to 100 scale
From the text: as §1

[16] = tested on: barnyardgrass (Echinochloa crus-galli); assay: Test B flooded paddy test, barnyardgrass; details: Flood, scale of 0 to 100 where 0 is no effect and 100 is complete control, 13 to 15 d
Experimental: (§2) Plant species in the flooded paddy test selected from rice (Oryza sativa), sedge, umbrella (small-flower umbrella sedge, Cyperus difformis), ducksalad (Heteranthera limosa), and barnyardgrass (Echinochloa crus-galli) were grown to the 2-leaf stage for testing. At time of treatment, test pots were flooded to 3 cm above the soil surface, treated by application of test compounds directly to the paddy water, and then maintained at that water depth for the duration of the test. Treated plants and controls were maintained in a greenhouse for 13 to 15 d, after which time all species were compared to controls and visually evaluated. Plant response ratings, summarized in Table B, are based on a scale of 0 to 100 where 0 is no effect and 100 is complete control. A dash (-) response means no test result.

[17] = tested on: ducksalad (Heteranthera limosa); assay: Test B flooded paddy test, ducksalad; details: Flood, scale of 0 to 100 where 0 is no effect and 100 is complete control, 13 to 15 d
Experimental: as §2

rice (Oryza sativa) = assay: Test B flooded paddy test, rice; details: Flood, scale of 0 to 100 where 0 is no effect and 100 is complete control, 13 to 15 d
Experimental: as §2

[18] = tested on: sedge, umbrella (small-flower umbrella sedge, Cyperus difformis); assay: Test B flooded paddy test, sedge, umbrella; details: Flood, scale of 0 to 100 where 0 is no effect and 100 is complete control, 13 to 15 d
Experimental: as §2

Row | Structure (SMILES) | Plant response rating, Barnyardgrass ([1]; 125 g ai/ha) | Plant response rating, Barnyardgrass ([1]; 500 g ai/ha) | Plant response rating, Kochia (kochia (Kochia scoparia) [2]; 125 g ai/ha) | Plant response rating, Kochia (kochia (Kochia scoparia) [2]; 500 g ai/ha) | Plant response rating, Ragweed ([3]; 125 g ai/ha) | Plant response rating, Ragweed ([3]; 500 g ai/ha) | Plant response rating, Ryegrass, It. ([4]; 125 g ai/ha) | Plant response rating, Ryegrass, It. ([4]; 500 g ai/ha) | Plant response rating, Foxtail, Giant ([5]; 125 g ai/ha) | Plant response rating, Foxtail, Giant ([5]; 500 g ai/ha) | Plant response rating, Pigweed ([6]; 125 g ai/ha) | Plant response rating, Pigweed ([6]; 500 g ai/ha) | Plant response rating, Barnyardgrass ([7]; 125 g ai/ha) | Plant response rating, Barnyardgrass ([7]; 500 g ai/ha) | Plant response rating, Kochia (kochia (Kochia scoparia) [8]; 125 g ai/ha) | Plant response rating, Kochia (kochia (Kochia scoparia) [8]; 500 g ai/ha) | Plant response rating, Ragweed ([9]; 125 g ai/ha) | Plant response rating, Ragweed ([9]; 500 g ai/ha) | Plant response rating, Ryegrass, It. ([10]; 125 g ai/ha) | Plant response rating, Ryegrass, It. ([10]; 500 g ai/ha) | other results
1 | O=C1NCC(/C=C/c2ccccc2F)C1C(=O)Nc1ccccc1F (stereo not drawn) [Compound 34] | 20 | 80 | 0 | 0 | 0 | 0 | 0 | 0 | 20 | 80 | 80 | 100 | 0 | 60 | 0 | 0 | 0 | 0 | 0 | 0 | Plant response rating, Foxtail, Giant ([11]; 125 g ai/ha): 20; Plant response rating, Foxtail, Giant ([11]; 500 g ai/ha): 80; Plant response rating, Wheat ([12]; 125 g ai/ha): 0; Plant response rating, Wheat ([12]; 500 g ai/ha): 20; Plant response rating, Corn (corn (Zea mays); 125 g ai/ha): 0; Plant response rating, Corn (corn (Zea mays); 500 g ai/ha): 0; Plant response rating, Pigweed ([13]; 125 g ai/ha): 0; Plant response rating, Pigweed ([13]; 500 g ai/ha): 0; Plant response rating, Blackgrass ([14]; 125 g ai/ha): 0; Plant response rating, Blackgrass ([14]; 500 g ai/ha): 0; Plant response rating, Galium ([15]; 125 g ai/ha): 0; Plant response rating, Galium ([15]; 500 g ai/ha): 0; Plant response rating, Barnyardgrass ([16]; 250 g ai/ha): 0; Plant response rating, Ducksalad ([17]; 250 g ai/ha): 80; Plant response rating, Rice (rice (Oryza sativa); 250 g ai/ha): 15; Plant response rating, Sedge, Umbrella ([18]; 250 g ai/ha): 60
2 | O=C1NCC(/C=C/c2ccc(F)cc2)C1C(=O)Nc1cccc(F)c1F (stereo not drawn) [Compound 31] | 0 | 70 | 0 | 20 | 0 | 0 | 0 | 0 | 20 | 70 | 0 | 0 | 30 | 70 | 0 | 30 | 0 | 20 | 0 | 20 | Plant response rating, Foxtail, Giant ([11]; 125 g ai/ha): 30; Plant response rating, Foxtail, Giant ([11]; 500 g ai/ha): 60; Plant response rating, Wheat ([12]; 125 g ai/ha): 0; Plant response rating, Wheat ([12]; 500 g ai/ha): 0; Plant response rating, Corn (corn (Zea mays); 125 g ai/ha): 0; Plant response rating, Corn (corn (Zea mays); 500 g ai/ha): 20; Plant response rating, Pigweed ([13]; 125 g ai/ha): 0; Plant response rating, Pigweed ([13]; 500 g ai/ha): 0; Plant response rating, Blackgrass ([14]; 125 g ai/ha): 0; Plant response rating, Blackgrass ([14]; 500 g ai/ha): 0; Plant response rating, Galium ([15]; 125 g ai/ha): 0; Plant response rating, Galium ([15]; 500 g ai/ha): 30; Plant response rating, Barnyardgrass ([16]; 250 g ai/ha): 40; Plant response rating, Ducksalad ([17]; 250 g ai/ha): 80; Plant response rating, Rice (rice (Oryza sativa); 250 g ai/ha): 15; Plant response rating, Sedge, Umbrella ([18]; 250 g ai/ha): 50
3 | O=C1NCC(Cc2cccc(F)c2F)C1C(=O)Nc1cccc(F)c1F (stereo not drawn) [Compound 8] | 0 | 0 | 0 | 0 | 0 | 0 | 0 | 0 | 0 | 50 | 0 | 0 | 0 | 0 | 0 | 0 | 0 | 0 | 0 | 0 | Plant response rating, Foxtail, Giant ([11]; 125 g ai/ha): 0; Plant response rating, Foxtail, Giant ([11]; 500 g ai/ha): 0; Plant response rating, Wheat ([12]; 125 g ai/ha): 0; Plant response rating, Wheat ([12]; 500 g ai/ha): 0; Plant response rating, Corn (corn (Zea mays); 125 g ai/ha): 0; Plant response rating, Corn (corn (Zea mays); 500 g ai/ha): 0; Plant response rating, Pigweed ([13]; 125 g ai/ha): 0; Plant response rating, Pigweed ([13]; 500 g ai/ha): 0; Plant response rating, Blackgrass ([14]; 125 g ai/ha): 0; Plant response rating, Blackgrass ([14]; 500 g ai/ha): 0; Plant response rating, Galium ([15]; 125 g ai/ha): 0; Plant response rating, Galium ([15]; 500 g ai/ha): 0; Plant response rating, Barnyardgrass ([16]; 500 g ai/ha): 0; Plant response rating, Ducksalad ([17]; 500 g ai/ha): 0; Plant response rating, Rice (rice (Oryza sativa); 500 g ai/ha): 0; Plant response rating, Sedge, Umbrella ([18]; 500 g ai/ha): 0
4 | O=C1NCC(Cc2cccc(C(F)(F)F)c2)C1C(=O)Nc1cccc(F)c1F (stereo not drawn) [Compound 11] | 0 | 0 | 0 | 0 | 0 | 0 | 0 | 0 | 0 | 0 | 0 | 0 | 0 | 0 | 0 | 0 | 0 | 0 | 0 | 0 | Plant response rating, Foxtail, Giant ([11]; 125 g ai/ha): 0; Plant response rating, Foxtail, Giant ([11]; 500 g ai/ha): 0; Plant response rating, Wheat ([12]; 125 g ai/ha): 0; Plant response rating, Wheat ([12]; 500 g ai/ha): 0; Plant response rating, Corn (corn (Zea mays); 125 g ai/ha): 0; Plant response rating, Corn (corn (Zea mays); 500 g ai/ha): 0; Plant response rating, Pigweed ([13]; 125 g ai/ha): 0; Plant response rating, Pigweed ([13]; 500 g ai/ha): 0; Plant response rating, Blackgrass ([14]; 125 g ai/ha): 0; Plant response rating, Blackgrass ([14]; 500 g ai/ha): 0; Plant response rating, Galium ([15]; 125 g ai/ha): 0; Plant response rating, Galium ([15]; 500 g ai/ha): 0; Plant response rating, Barnyardgrass ([16]; 500 g ai/ha): 0; Plant response rating, Ducksalad ([17]; 500 g ai/ha): 0; Plant response rating, Rice (rice (Oryza sativa); 500 g ai/ha): 0; Plant response rating, Sedge, Umbrella ([18]; 500 g ai/ha): 0
5 | O=C1NCC(C#Cc2cccc(Cl)c2)C1C(=O)Nc1ccccc1F (stereo not drawn) [Compound 25, 4-[2-(3-chlorophenyl)ethynyl]N-(2-fluorophenyl)-2-oxo-3-pyrrolidinecarboxamide] | 60 | 90 | 0 | 60 | 0 | 0 | 0 | 0 | 40 | 90 | 0 | 50 | 40 | 70 | 0 | 0 | 0 | 0 | 0 | 0 | Plant response rating, Foxtail, Giant ([11]; 125 g ai/ha): 30; Plant response rating, Foxtail, Giant ([11]; 500 g ai/ha): 80; Plant response rating, Wheat ([12]; 125 g ai/ha): 0; Plant response rating, Wheat ([12]; 500 g ai/ha): 0; Plant response rating, Corn (corn (Zea mays); 125 g ai/ha): 0; Plant response rating, Corn (corn (Zea mays); 500 g ai/ha): 0; Plant response rating, Pigweed ([13]; 125 g ai/ha): 0; Plant response rating, Pigweed ([13]; 500 g ai/ha): 20; Plant response rating, Blackgrass ([14]; 125 g ai/ha): 0; Plant response rating, Blackgrass ([14]; 500 g ai/ha): 0; Plant response rating, Galium ([15]; 125 g ai/ha): 0; Plant response rating, Galium ([15]; 500 g ai/ha): 60; Plant response rating, Barnyardgrass ([16]; 250 g ai/ha): 0; Plant response rating, Ducksalad ([17]; 250 g ai/ha): 85; Plant response rating, Rice (rice (Oryza sativa); 250 g ai/ha): 20; Plant response rating, Sedge, Umbrella ([18]; 250 g ai/ha): 0
